Experimental data from patent US9265749B2, “Methods for the treatment of systemic disorders treatable with mast cell stabilizers, including mast cell related disorders” (Patara Pharma, LLC, priority 2014, dated 2016).

Experiment: Single-dose, dose escalation study Part 1: pharmacokinetics of plasma/urine cromolyn sodium (DSCG)
Type: in vivo
Conditions: human, plasma, inhaled, 40 mg
Method: This was a Phase 1, randomized, open-label, single-centre, dose-ranging, cross-over study conducted in two parts in total of 18 subjects. Part 1 was conducted in total of 12 healthy adult subjects of 18-45 years of age. Part 2 was conducted in a total of 5 adult patients of 18-45 years of age with systemic mastocytosis. Parts 1 and 2 were conducted in parallel.
40 mg PA-101 (4% DSCG, 40 mg/1 mL), oral inhalation via eFlow 30L. • 2. 80 mg PA-101 (4% DSCG, 80 mg/2 mL), oral inhalation via eFlow 30L. • 3. 40 mg PA-101 (4% DSCG, 40 mg/1 mL), oral inhalation via eFlow 40L. • 4. […] 200 mg oral sodium cromoglycate solution (commercially available product), oral administration. […] 40 mg PA-101 (4% DSCG 40 mg/1 mL), oral inhalation via eFlow 30L • 2. 200 mg oral sodium cromoglycate solution (commercially available product), oral administration. […]
Urine DSCG levels were measured for total DSCG excretion in the urine, and the bioavailability of the DSCG was calculated from the measured levels.
Pharmacokinetic parameters and plasma concentrations are listed and summarized. […] Analysis of variance (ANOVA) including terms for subject and treatment are used to calculate point estimates, and confidence intervals (CI) for treatment differences with respect to PK parameters (90% CI) are calculated.

O=C(O)c1cc(=O)c2c(OCC(O)COc3cccc4oc(C(=O)O)cc(=O)c34)cccc2o1 [cromolyn sodium]
AUC (40 mg dose using the 30L device (text repeat of Table 2, PA-101)): 338 ng·h/mL | AUC (40 mg dose using the 40L device (text repeat of Table 2, PA-101)): 212 ng·h/mL
